This is an account of results in patent US8273740B2, “2-sulfanyl-benzoimidazol-1-yi-acetic acid derivatives as CRTH2 antagonists” (Actelion Pharmaceuticals, Ltd., priority 2004, dated 2012).

In test [1] the target is T1, hCRTH2 receptor (Homo sapiens, UniProt Q9Y5Y4).
T1 construct: expressed in transfected cells; host or cells: clonal HEK 293 cell line (membranes)
T1 sequence (Q9Y5Y4 1-395): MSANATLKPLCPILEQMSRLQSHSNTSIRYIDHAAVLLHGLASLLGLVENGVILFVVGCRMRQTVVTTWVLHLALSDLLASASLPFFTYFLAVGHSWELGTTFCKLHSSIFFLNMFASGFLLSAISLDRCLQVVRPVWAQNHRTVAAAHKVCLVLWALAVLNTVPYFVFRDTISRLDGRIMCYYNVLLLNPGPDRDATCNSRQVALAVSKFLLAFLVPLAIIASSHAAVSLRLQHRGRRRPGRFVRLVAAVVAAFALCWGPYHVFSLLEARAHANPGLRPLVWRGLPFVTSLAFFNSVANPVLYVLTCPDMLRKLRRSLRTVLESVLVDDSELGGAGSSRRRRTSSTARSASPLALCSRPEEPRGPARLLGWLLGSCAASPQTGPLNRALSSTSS
In words: CRTH2 membranes radioligand binding assay ({3H}-PGD2); antagonist binding to the CRTH2 receptor. To be noted: {3H}-PGD2 radioligand binding, membranes of HEK 293 cells expressing recombinant hCRTH2; read-out: hCRTH2 BDG IC50. The procedure: Preparation of CRTH2 Membranes and Radioligand Binding Assay:
Cells are detached from culture plates in 5 ml buffer A per plate (5 mM Tris, 1 mM MgCl2x6H2O, 0.1 mM PMSF, 0.1 mM phenanthroline) using a police rubber and transferred into centrifugation tubes and frozen at −80° C. After thawing, the cells are centrifuged at 500 g for 5 min and then resuspended in buffer A. Cells are then fragmented by homogenization with a Polytron homogenizer for 30 s. The membrane fragments are centrifuged at 3000 g for 40 min and resuspended in membranes in buffer B (50 mM Tris, 25 mM MgCl2, 250 mM saccharose, pH 7.4) and aliquots are stored frozen.
Binding assay is performed in a total volume of 250 μl. […] For unspecific binding, PGD2 is added to the reaction mixture at 1 μM final concentration. This binding assay mix is incubated at rt for 90 min and then filtered through a GF/C filter plate. The filter is washed three times with ice cold binding buffer. Then, 40 μl per well Microscint-40 (Packard) are added and the bound radioactivity is quantified by means of Topcount (Packard).

The target of test [2] is T1, hCRTH2 receptor. In words: Intracellular calcium mobilization assay (FLIPR), antagonism of prostaglandin D2. The format is cell-based. From the text:
A functional assay with cells expressing the human CRTH2 receptor may be used to detect changes in the levels of intracellular calcium concentration following compound treatment. After addition of the compound the cells are challenged with PGD2. […] The relative values of the remaining activity were used to determine IC50 values by curve fitting the data to a single site to a four-parameter logistic sigmoid dose response curve of the equation (A+((B−A)/(1+((C/x)^D)))).
The ability of the compounds to inhibit PGD2 induced change of intracellular calcium levels via CRTH2 activation may be measured by methods known of one skilled in the art or by the method described below in the experimental part.
Intracellular Calcium Mobilization Assay (FLIPR):
Cells are detached from culture dishes using a dissociation buffer (0.02% EDTA in PBS, Gibco) for 1 min, and collected by centrifugation at 200 g at rt for 5 min in assay buffer [equal parts of Hank's BSS (HBSS, Bioconcept) and DMEM (low glucose, without phenol red, Gibco)].
Stock solutions of test compounds are made up at a concentration of 10 mM in DMSO, and serially diluted in assay buffer to concentrations required for inhibition dose response curves. Prostaglandin D2 (Biomol, Plymouth Meeting, Pa.) is used as an agonist.
A FLIPR384 instrument (Molecular Devices) is operated according to the manufacturer's standard instructions, adding 4 μl of test compound dissolved at 10 mM in DMSO and diluted prior to the experiment in assay buffer to obtain the desired final concentration. An assay buffer containing 10 μl of 80 nM prostaglandin D2 (Biomol, Plymouth Meeting, Pa.), supplemented with 0.8% bovine serum albumin (fatty acid content <0.02%, Sigma), is then added to obtain a final concentration of 10 nM and 0.1%, respectively. […] Emission peak values above base level after prostaglandin D2 addition are exported after base line subtraction. Values are normalized to high-level control (no test compound added) after subtraction of base line value (no prostaglandin D2 added). The program XL1fit 3.0 (IDBS) is used to fit the data to a single site dose response curve of the equation (A+((B−A)/(1+((C/x)^D)))) and to calculate the IC50 values.
(A change in cytosolic calcium serves as a functional read-out for many receptors and channels.)

Where [3] appears, read: HEK-293 cells expressing hCRTH2, agonist prostaglandin D2 10 nM, read-out: hCRTH2 FLIPR IC50.

SMILES strings stand for the structures.

By IC50 is commonly meant the concentration that inhibits the measured activity by half.

With `O=C(O)Cn1c(SCC2CCN(C(=O)c3ccc(Br)cc3)C2)nc2cc(F)ccc21` (racemic), the IC50 in test [1] was 23 nM; in test [2] (setting [3]) it was 88 nM. Consider `CC(=O)c1ccc(OCCCO)c(CSc2nc3cc(F)ccc3n2CC(=O)O)c1` [{2-[5-Acetyl-2-(3-hydroxy-propoxy)-benzylsulfanyl]-5-fluoro-benzoimidazol-1-yl}-acetic acid], for which the IC50 in test [1] worked out at 2 nM. On to `O=C(O)Cn1c(SCCC(c2ccccc2)c2ccccc2)nc2ccc([N+](=O)[O-])cc21` [[2-(3,3-Diphenyl-propylsulfanyl)-6-nitro-benzoimidazol-1-yl]-acetic acid], for which, in test [2] (setting [3]), the half-inhibitory concentration (IC50) was 212 nM. For the compound `CCCC(=O)N1CCCC(CSc2nc3cc(Cl)c(Cl)cc3n2CC(=O)O)C1` (centres unmarked) [[2-(1-Butyryl-piperidin-3-ylmethylsulfanyl)-5,6-dichloro-benzoimidazol-1-yl]-acetic acid], the IC50 in test [1] came to 4 nM; in test [2] (setting [3]), 148 nM. As for `O=C(O)Cn1c(SCC2CCCN(C(=O)c3cccc(Cl)c3)C2)nc2ccccc21` (racemic), the IC50 in test [2] (setting [3]) stood at 156 nM. On to `CCCCC(=O)N(CCCSc1nc2ccccc2n1CC(=O)O)CCc1ccccc1` [{2-[3-(Pentanoyl-phenethyl-amino)-propylsulfanyl]-benzoimidazol-1-yl}-acetic acid], for which the IC50 in test [1] came out at 12 nM. Consider `O=C(O)Cn1c(SCC2CCCN(C(=O)c3ccc(Br)cc3)C2)nc2ccccc21` (racemic), for which the IC50 in test [1] worked out at 18 nM.

Regarding `CCCCOC(=O)N(CCCSc1nc2ccccc2n1CC(=O)O)CCc1ccccc1`, in test [1], the half-inhibitory concentration (IC50) came to 10 nM. Still for that read-out and setting: to `COc1ccc(C(C)=O)cc1CSc1nc2cc(C=O)ccc2n1CC(=O)O` [[2-(5-Acetyl-2-methoxy-benzylsulfanyl)-5-formyl-benzoimidazol-1-yl]-acetic acid] belongs 6 nM.

Consider `CCCCNC(=O)c1ccc(OC)c(CSc2nc3cc(F)ccc3n2CC(=O)O)c1` [[2-(5-Butylcarbamoyl-2-methoxy-benzylsulfanyl)-5-fluoro-benzoimidazol-1-yl]-acetic acid], for which the IC50 in test [2] is 21 nM.

`COc1ccc(C(=O)N2CCc3ccccc32)cc1CSc1nc2cc(F)ccc2n1CC(=O)O` [{2-[5-(2,3-Dihydro-indole-1-carbonyl)-2-methoxy-benzylsulfanyl]-5-fluoro-benzoimidazol-1-yl}-acetic acid]: the IC50 in test [2] (setting [3]) worked out at 4 nM. With `CCCC(=O)N1CCCC(CSc2nc3ccccc3n2CC(=O)O)C1` (racemic), in test [1], the IC50 was 22 nM. For the compound `CCCCC(=O)N(CCCSc1nc2ccccc2n1CC(=O)O)CC(c1ccccc1)c1ccccc1` [(2-{3-[(2,2-Diphenyl-ethyl)-pentanoyl-amino]-propylsulfanyl}-benzoimidazol-1-yl)-acetic acid], the IC50 in test [1] is 15 nM. On to `COC(=O)c1cccc(CSc2nc3cc([N+](=O)[O-])ccc3n2CC(=O)O)c1` [[2-(3-Methoxycarbonyl-benzylsulfanyl)-5-nitro-benzoimidazol-1-yl]-acetic acid], for which the IC50 in test [1] and in test [2] (setting [3]) was 15 nM in each case. Take `COc1ccc(C(C)=O)cc1CSc1nc2ccccc2n1CC(=O)O` [[2-(5-Acetyl-2-methoxy-benzylsulfanyl)-benzoimidazol-1-yl]-acetic acid]: the IC50 in test [1] turned out to be 9 nM. Same read-out and setting: with `CCCCOC(=O)N(CCCSc1nc2cc([N+](=O)[O-])ccc2n1CC(=O)O)CCc1ccccc1` [{2-[3-(Butoxycarbonyl-phenethyl-amino)-propylsulfanyl]-5-nitro-benzoimidazol-1-yl}-acetic acid] the figure was 1 nM; with `COc1ccc(C(C)=O)cc1CSc1nc2cc(F)ccc2n1C(C)C(=O)O` (racemic), 13 nM. As for `CCOC(=O)c1ccc(N(CCCSc2nc3ccccc3n2CC(=O)O)C(=O)CC(c2ccccc2)c2ccccc2)cc1`, the IC50 in test [2] (setting [3]) stood at 128 nM. For `CCOC(=O)c1ccc(N(CCCSc2nc3ccccc3n2CC(=O)O)C(=O)C(c2ccccc2)C2CCCCC2)cc1` (racemic), the IC50 in test [1] is 7 nM. As for `COC(=O)c1ccc(OC)c(CSc2nc3ccccc3n2CC(=O)O)c1`, in test [2] (setting [3]), the IC50 came to 201 nM.
